Experimental data taken from patent US10407666B2, “Recombinant vectors” (priority 2008, dated 2019).
“Also recorded” adds a separate entry of the source.

What was measured:
[1] = tested on: recurrent anaplastic oligodendroglioma; test: Patient dog with spontaneous recurrent anaplastic oligodendroglioma, vector by CED plus 5-FC; settings: second cycle 160 mg/kg/day by mouth, stopped after fifth day
[2] = tested on: Mouse CT26 tumor explants; test: 5-FC cell killing assay (MTS) on CT26 tumor explants; type: cell-based; settings: explant animal 31: CT26, AC3-yCD2(V) E5 + 5-FC, 3.5 5-FC dosings
U-87 cells = test: yCD protein level in infected U-87 cells (FIG. 4); type: cell-based, human

Molecule: Nc1nc(=O)[nH]cc1F [Vector 5-FC, 5-fluorocytosine]
- adverse event [1]: development of rash
- 5-FC sensitivity IC50 (mM) [2]: poorly responsive; also recorded: Not sensitive

B1: yCD2 protein: yeast cytosine deaminase with A23L/V108I/I140L substitutions, human codon optimized gene (SEQ ID NO:4) (protein, UniProt Q12178 1-158, looked up, variant A23L V108I I140L)
Cytosine deaminase: MVTGGMASKWDQKGMDIAYEEALLGYKEGGVPIGGCLINNKDGSVLGRGHNMRFQKGSATLHGEISTLENCGRLEGKVYKDTTLYTTLSPCDMCTGAIIMYGIPRCVIGENVNFKSKGEKYLQTRGHEVVVVDDERCKKLMKQFIDERPQDWFEDIGE
- CD protein level compared to wild type yCD protein (U-87 cells): higher levels
